Patent US20070128217A1 (priority 2003, published 2007)

Columns and labels:
[1] = tested on: control sera (pooled serum of ten healthy LUMC hospital workers; commercial negative donor pooled serum from the Dutch bloodbank); format: binding, human; design: Binding of Control serum LUMC to linear peptides / Binding of Control serum Blood-bank to linear peptides / Binding of Control serum LUMC to looped peptides / Binding of Control Serum Blood-Bank to Looped peptides / Binding of Control serum LUMC to linear peptides of the protein M of SARS-CoV Urbani / Binding of Control serum Blood-bank to linear peptides of the protein M of SARS-CoV Urbani / Binding of Control serum LUMC to looped peptides of the protein M of SARS-CoV Urbani / Binding of Control Serum Blood-Bank to Looped peptides of the protein M of SARS-CoV Urbani: unit not given here
[2] = tested on: recombinant human anti-SARS-CoV antibody 03-018; format: binding; design: Binding of antibody 03-018 to linear peptides of the N protein of SARS-CoV Urbani / Binding of antibody 03-018 to looped/cyclic peptides of the N protein of SARS-CoV Urbani: unit not given here
[3] = tested on: antibodies in sera from SARS patients (sera 1a, 1b, 2, 6, 37, 62, London, SARS-yellow, SARS-green); format: binding, human; design: Binding of serum 6 to linear peptides of protein X1 of SARS-CoV Urbani / Binding of serum 37 to linear peptides of protein X1 of SARS-CoV Urbani / Binding of serum 6 to looped/cyclic peptide (PEPSCAN-ELISA) / Binding of serum 37 to looped/cyclic peptide (PEPSCAN-ELISA) / Binding of serum 37 to looped/cyclic peptides of protein X1 of SARS-CoV Urbani / Binding of serum 6 to linear peptides of protein X2 / Binding of serum 37 to linear peptides of protein X2 / Binding of serum 37 to looped/cyclic peptides of protein X2 of SARS-CoV Urbani / Binding of serum 6 to linear peptides of protein M of SARS-CoV Urbani / Binding of serum 37 to linear peptides of protein M of SARS-CoV Urbani / Binding of serum 6 to looped/cyclic peptides of protein M of SARS-CoV Urbani / Binding of serum 37 to looped/cyclic peptides of protein M of SARS-CoV Urbani / Binding of serum 6 to linear peptides of protein X3 of SARS-CoV Urbani / Binding of serum 37 to linear peptides of protein X3 of SARS-CoV Urbani / Binding of serum 37 to looped/cyclic peptides of protein X3 of SARS-CoV Urbani / Binding of serum 6 to linear peptides of protein X4 of SARS-CoV Urbani / Binding of serum 37 to linear peptides of protein X4 of SARS-CoV Urbani / Binding of serum 37 to looped/cyclic peptides of protein X4 of SARS-CoV Urbani / Binding of serum 6 to linear peptides of protein X5 of SARS-CoV Urbani / Binding of serum 37 to linear peptides of protein X5 of SARS-CoV Urbani / Binding of serum 37 to looped/cyclic peptides of protein X5 of SARS-CoV Urbani / Binding of serum 6 to linear peptides of protein N of SARS-CoV Urbani / Binding of serum 37 to linear peptides of protein N of SARS-CoV Urbani / Binding of serum 6 to linear peptide (PEPSCAN-ELISA) / Binding of serum 1a to looped/cyclic peptides of protein N of SARS-CoV Urbani / Binding of serum 1b to looped/cyclic peptides of protein N of SARS-CoV Urbani / Binding of serum 2 to looped/cyclic peptides of protein N of SARS-CoV Urbani / Binding of serum 6 to looped/cyclic peptides of protein N of SARS-CoV Urbani / Binding of serum 37 to looped/cyclic peptides of protein N of SARS-CoV Urbani / Binding of serum 62 to looped/cyclic peptides of protein N of SARS-CoV Urbani / Binding of serum London to looped/cyclic peptides of protein N of SARS-CoV Urbani / Binding of serum SARS-green to looped/cyclic peptides of protein N of SARS-CoV Urbani: unit not given here
[4] = tested on: rabbit serum obtained by immunizing a rabbit with the SARS-CoV strain Frankfurt 1; format: binding; design: Binding of a rabbit serum to linear peptides / Binding of a rabbit serum to looped peptides / Rabbit serum linear peptides / Rabbit serum looped peptides / Binding of a rabbit serum to linear peptides of protein N of SARS-CoV Urbani (Rabbit serum linear peptides) / Binding of a rabbit serum to looped/cyclic peptides of protein N of SARS-CoV Urbani (Rabbit serum looped peptides): unit not given here

Row | Sequence | Binding of serum 1a to linear peptides of protein N of SARS-CoV Urbani [3] | Binding of serum 1a to looped/cyclic peptides of protein N of SARS-CoV Urbani [3] | Binding of serum 1b to linear peptides of protein N of SARS-CoV Urbani [3] | Binding of serum 1b to looped/cyclic peptides of protein N of SARS-CoV Urbani [3] | Binding of serum 2 to linear peptides of protein N of SARS-CoV Urbani [3] | Binding of serum 2 to looped/cyclic peptides of protein N of SARS-CoV Urbani [3] | Binding of serum 6 to linear peptides of protein N of SARS-CoV Urbani [3] | Binding of serum 6 to looped/cyclic peptides of protein N of SARS-CoV Urbani [3] | Binding of serum 37 to linear peptides of protein N of SARS-CoV Urbani [3] | Binding of serum 37 to looped/cyclic peptides of protein N of SARS-CoV Urbani [3] | Binding of serum 62 to linear peptides of protein N of SARS-CoV Urbani [3] | Binding of serum 62 to looped/cyclic peptides of protein N of SARS-CoV Urbani [3] | Binding of serum London to linear peptides of protein N of SARS-CoV Urbani [3] | Binding of serum London to looped/cyclic peptides of protein N of SARS-CoV Urbani [3] | Binding of serum SARS-green to linear peptides of protein N of SARS-CoV Urbani [3] | Binding of serum SARS-green to looped/cyclic peptides of protein N of SARS-CoV Urbani [3] | Binding of serum SARS-yellow to linear peptides of protein N of SARS-CoV Urbani [3] | Binding of serum SARS-yellow to looped/cyclic peptides of protein N of SARS-CoV Urbani [3] | Binding of a rabbit serum to linear peptides of protein N of SARS-CoV Urbani (Rabbit serum linear peptides) [4] | Binding of a rabbit serum to looped/cyclic peptides of protein N of SARS-CoV Urbani (Rabbit serum looped peptides) [4] | further results
1 | HIDAYKTFPPTEPKK | 0.2 | 0.2 | 0.1 | 0.1 | 0.2 | 0.2 | 0.2 | 0.1 | 0.6 | 0.3 | 0.6 | 0.2 | 0.4 | 0.3 | 0.2 | 0.0 | 0.5 | 0.0 | 0.1 | 0.0 | Control Serum Blood-Bank Looped peptides [1]: 0.4; Control serum Blood-bank linear peptides [1]: 0.6; Control serum LUMC linear peptides [1]: 0.7; Control serum LUMC looped peptides [1]: 0.3; Binding of antibody 03-018 to linear peptides of the N protein of SARS-CoV Urbani [2]: 0.1; Binding of antibody 03-018 to looped/cyclic peptides of the N protein of SARS-CoV Urbani [2]: 0.2
2 | SNQRSAPRITFGGPT | 0.2 | 0.4 | 0.1 | 0.2 | 0.2 | 0.4 | 0.1 | 0.4 | 0.6 | 0.7 | 0.6 | 0.4 | 0.4 | 0.9 | 0.2 | 0.3 | 0.5 | 0.6 | 0.4 | 0.9 | Binding of Control Serum Blood-Bank to Looped peptides [1]: 0.7; Binding of Control serum Blood-bank to linear peptides [1]: 0.6; Binding of Control serum LUMC to linear peptides [1]: 0.5; Binding of Control serum LUMC to looped peptides [1]: 0.7; Recognition of the peptide by antibody 03-018 [2]: recognized
3 | VWVATEGALNTPKDH | 0.2 | 0.3 | 0.1 | 0.3 | 0.2 | 0.6 | 0.2 | 0.4 | 0.8 | 0.6 | 0.7 | 0.6 | 0.6 | 1.2 | 0.5 | 0.7 | 0.6 | 0.6 | 0.1 | 0.4 | Binding of Control Serum Blood-Bank to Looped peptides [1]: 0.8; Binding of Control serum Blood-bank to linear peptides [1]: 0.6; Binding of Control serum LUMC to linear peptides [1]: 0.8; Binding of Control serum LUMC to looped peptides [1]: 0.6; Binding of antibody 03-018 to linear peptides of the N protein of SARS-CoV Urbani [2]: 0.1; Binding of antibody 03-018 to looped/cyclic peptides of the N protein of SARS-CoV Urbani [2]: 0.3
4 | SWFTALTQHGKEELR | 0.2 | 0.2 | 0.1 | 0.1 | 0.2 | 0.2 | 0.1 | 0.1 | 0.6 | 0.3 | 0.6 | 0.2 | 0.5 | 0.2 | 0.2 | 0.1 | 0.5 | 0.0 | 0.1 | 0.0 | Binding of Control Serum Blood-Bank to Looped peptides [1]: 0.4; Binding of Control serum Blood-bank to linear peptides [1]: 0.6; Binding of Control serum LUMC to linear peptides [1]: 0.7; Binding of Control serum LUMC to looped peptides [1]: 0.3; Binding of antibody 03-018 to linear peptides of the N protein of SARS-CoV Urbani [2]: 0.1; Binding of antibody 03-018 to looped/cyclic peptides of the N protein of SARS-CoV Urbani [2]: 0.2
